Test results as given in patent publication US5215999A, “Quinoline derivative and antiulcer agent containing said quinoline derivative” (Otsuka Pharmaceutical Co., Ltd., priority 1990, dated 1993).
Where a name gives a salt, the structure may show the parent alone.

Legend:
H^+ +K^+ ATPase = biological target: T1, H^+ +K^+ ATPase (Sus scrofa, UniProt P19156); assay: H+ + K+ ATPase inhibitory action; format: biochemical; conditions: pig stomach enzyme, protein 10 μg; pH 7.4, 37° C., 30 minutes
T1 construct: prepared from the stomach of a pig; from tissue; host or cells: pig stomach
Procedure: (c) H^+ +K^+ ATPase Inhibitory Action
H^+ +K^+ ATPase (adenosinetriphosphatase)(protein: 10 μg) prepared from the stomach of a pig was added to a pipes-Tris [2-amino-2-(hydroxymethyl)-1,3-propandiol] buffer (pipes-Tris buffer)(pH 8.1) containing 2 mM piperazine N,N'-bis(2-ethane sulfonic acid). The resultant reaction solution was allowed to stand at a room temperature. Each of the test compounds was dissolved in dimethyl formamide, which was added to the H^+ +K^+ ATPase buffer such that the final concentration was 1%. The resultant reaction solution was reacted at a room temperature for 30 minutes. In the same manner, another reaction solution was prepared. Respectively added to the reaction solutions were 1 ml of a 75 mM pipes-TRIS buffer (pH 7.4) (containing 4 mM MgCl2, 4 mM Na2 ATP and 20 mM KCl) and 1 ml of a 75 mM pipes-Tris buffer (pH7.4) (containing 4 mM MgCl2 and 4 mM Na2 ATP). Thus, two kinds of samples were prepared and reacted at 37° C. for 30 minutes. Added to each of the samples was 0.3 ml of 40% trichloroacetic acid, thus completing the reaction. After the samples were subjected to centrifugal separation (3,000 rpm) for 10 minutes. The supernatant liquids were taken to produce inorganic phosphoric acids, of which amounts were measured according to a Fiske and Subbarow method [J. Biol. Chem. vol. 86,375 (1925)]. The amount of the inorganic phosphoric acid obtained from the pipes-Tris buffer containing no 20 mM KCl was deducted from the amount of the inorganic phosphoric acid obtained from the pipes-Tris buffer containing 20 mM KCl. The difference expressed in terms of unit protein per unit time was defined as an enzyme active value. The inhibition value (%) of each dosage was obtained from the control value and the enzyme active value at each dosage. Based on the inhibition value thus obtained, IC50 (the dosage of each test compound which achieves inhibition of 50%) was obtained.

stomach-acid secretion = assay: Stomach-acid secretion inhibitory action on rats (histamine-stimulated, perfused stomach); format: in vivo, Wistar-type male rats; conditions: Rattus norvegicus, iv; 0.3, 1, 3, 10 and 30 mg/kg; histamine dihydrochloride 1 mg/kg/hr; probit method
Procedure: (a) Stomach-Acid Secretion Inhibitory Action on Rats
After each of Wistar-type male rats was let abstain from food for 24 hours, the pylorus thereof was bound while the rat was paralyzed with urethane (1.5 g/kg s.c.), and a stomach perfusion cannula was inserted into the rat stomach. The rat stomach was perfused with a physiological salt solution through an oral catheter. The amount of stomach-acid secretion was measured by titrating the total acidity and pH of the perfusion solution. As an acid secretion stimulant, 1 mg/kg/hr of histamine dihydrochloride was continuously injected through the femoral vein to accelerate the acid secretion. Then, the effects of a variety of compounds were studied.
Each of test compounds as dissolved in dimethylformamide was intravenously administered to the rat in each of dosages of 0.3, 1, 3, 10 and 30 mg/kg through […].
There was calculated an inhibition percentage of acid secretion with respect to acid secretion before administration of each of the test compounds. An ED50 value was calculated from the inhibition percentage with respect to each dosage according to a probit method.

T1 sequence (P19156 2-1034 limits assumed): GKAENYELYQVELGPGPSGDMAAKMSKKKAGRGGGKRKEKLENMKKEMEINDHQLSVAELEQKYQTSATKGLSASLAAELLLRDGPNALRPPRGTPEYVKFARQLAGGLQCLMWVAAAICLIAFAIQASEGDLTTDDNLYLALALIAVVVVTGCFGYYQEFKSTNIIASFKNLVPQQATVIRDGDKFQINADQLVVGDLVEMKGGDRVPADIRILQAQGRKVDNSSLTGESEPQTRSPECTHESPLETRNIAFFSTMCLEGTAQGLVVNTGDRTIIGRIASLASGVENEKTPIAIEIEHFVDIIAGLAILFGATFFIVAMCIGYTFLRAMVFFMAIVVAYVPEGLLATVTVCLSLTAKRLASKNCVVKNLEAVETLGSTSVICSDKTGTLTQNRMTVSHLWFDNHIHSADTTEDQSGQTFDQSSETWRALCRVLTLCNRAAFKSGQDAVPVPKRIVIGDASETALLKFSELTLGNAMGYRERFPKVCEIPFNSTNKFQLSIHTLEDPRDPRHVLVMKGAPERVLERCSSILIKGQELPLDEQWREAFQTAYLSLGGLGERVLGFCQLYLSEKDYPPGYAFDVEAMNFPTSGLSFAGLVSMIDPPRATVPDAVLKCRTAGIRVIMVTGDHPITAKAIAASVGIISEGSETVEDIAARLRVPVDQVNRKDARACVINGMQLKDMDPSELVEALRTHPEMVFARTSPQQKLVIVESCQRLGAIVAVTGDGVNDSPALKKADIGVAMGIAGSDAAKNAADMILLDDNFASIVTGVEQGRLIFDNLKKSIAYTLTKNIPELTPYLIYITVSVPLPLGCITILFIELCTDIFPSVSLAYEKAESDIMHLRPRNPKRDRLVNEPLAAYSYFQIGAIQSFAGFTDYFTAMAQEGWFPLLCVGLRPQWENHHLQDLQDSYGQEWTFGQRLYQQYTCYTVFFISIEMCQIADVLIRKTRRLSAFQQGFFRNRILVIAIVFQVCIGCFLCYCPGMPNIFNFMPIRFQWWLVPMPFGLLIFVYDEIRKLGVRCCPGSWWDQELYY
T1 sequence (P18434 whole entry partner): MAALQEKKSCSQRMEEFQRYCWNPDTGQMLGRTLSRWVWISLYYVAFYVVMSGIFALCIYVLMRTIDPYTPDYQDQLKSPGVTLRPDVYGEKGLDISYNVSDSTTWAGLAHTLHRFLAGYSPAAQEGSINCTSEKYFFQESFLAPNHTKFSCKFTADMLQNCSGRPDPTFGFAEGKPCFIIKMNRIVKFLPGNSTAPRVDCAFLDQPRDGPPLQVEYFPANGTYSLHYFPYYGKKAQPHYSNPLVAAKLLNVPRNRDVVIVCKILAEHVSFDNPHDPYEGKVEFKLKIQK

| IC50 (H^+ +K^+ ATPase) [nM] | Compound | ED50 (stomach-acid secretion) [mg/kg] |
| --- | --- | --- |
| 4900 | C=CCNC(=O)c1cnc2c(OC)cccc2c1Nc1ccccc1C(C)C [Test Compound 3, N-2-propenyl-4-[(2-isopropylphenyl)amino]-8-methoxyquinoline-3-carboxamide hydrochloride] | – |
| 1600 | C=CCNC(=O)c1cnc2c(OC)cccc2c1Nc1ccccc1SCCC [Test Compound 5, N-2-propenyl-8-methoxy-4-[(2-propylthiophenyl)amino]quinoline-3-carboxamide hydrochloride] | – |
| – | C=CCNC(=O)c1cnc2c(OC)cccc2c1Nc1ccccc1C.Cl [Test Compound 1, N-2-propenyl-8-methoxy-4-[(2-methylphenyl)amino]quinoline-3-carboxamide hydrochloride] | 6.72 |
| 2200 | C=CCNC(=O)c1cnc2c(OC)cccc2c1Nc1ccccc1CC [Test Compound 2, N-2-propenyl-4-[(2-ethylphenyl)amino]-8-methoxyquinoline-3-carboxamide hydrochloride] | – |
